Measurements from ChEMBL document CHEMBL4706524, “Discovery of sulfonyl hydrazone derivative as a new selective PDE4A and PDE4D inhibitor by lead-optimization approach on the prototype LASSBio-448: In vitro and in vivo preclinical studies” (Eur J Med Chem, 2020).

Tests used:
[1] = Chemical stability of the compound in phosphate buffer at pH 7.4 measured upto 120 mins by HPLC-DAD analysis; assay type: physicochemical; conditions: pH 7.4, 2 h
[2] = molecular target: 3',5'-cyclic-AMP phosphodiesterase 4C (Homo sapiens, UniProt Q08493); test: Inhibition of human recombinant PDE4C using FAM-cAMP as substrate at 10 uM measured after 1 hr by IMAP TR-FRET assay
[3] = molecular target: 3',5'-cyclic-AMP phosphodiesterase 4B (Homo sapiens, UniProt Q07343); test: Inhibition of human recombinant PDE4B1 using FAM-cAMP as substrate at 10 uM measured after 1 hr by IMAP TR-FRET assay
[4] = organism: Homo sapiens; test: Inhibition of human recombinant PDE4A1A using FAM-cAMP as substrate at 10 uM measured after 1 hr by IMAP TR-FRET assay
[5] = Chemical stability of the compound in KCl/HCl buffer at pH 2.0 measured upto 120 mins by HPLC-DAD analysis; conditions: pH 2, 2 h
[6] = molecular target: T1, 3',5'-cyclic-AMP phosphodiesterase 4D (Homo sapiens, UniProt Q08499); test: Inhibition of human recombinant PDE4D3 using FAM-cAMP as substrate at 10 uM measured after 1 hr by IMAP TR-FRET assay
[7] = molecular target: T1, 3',5'-cyclic-AMP phosphodiesterase 4D; test: Inhibition of human recombinant PDE4D3 using FAM-cAMP as substrate measured after 1 hr by IMAP TR-FRET assay relative to control
[8] = tested on: Trachea; test: […] activity in OVA-sensitized guinea pig-derived trachea assessed as decrease in CCh-induced tracheal tonic contraction in presence of functional epithelium treated with compound after contraction stabilised; assay type: tissue-based; conditions: Cavia porcellus
[9] = tested on: Trachea; test: […] activity in non-sensitized guinea pig-derived trachea assessed as decrease in CCh-induced tracheal tonic contraction in presence of functional epithelium; assay type: tissue-based; conditions: Cavia porcellus
[10] = tested on: Mus musculus; test: Antiinflammatory activity against A/J mouse assessed as decrease in LPS-induced airway hyperreactivity at 25 umol/kg, po treated via gavage for 1 hr before LPS stimulation measured after 24 hrs by whole body plethysmography relative to control; assay type: functional; conditions: 25 h
[11] = molecular target: T1, 3',5'-cyclic-AMP phosphodiesterase 4D; test: Inhibition of human recombinant PDE4D3 using FAM-cAMP as substrate measured after 1 hr by IMAP TR-FRET assay
[12] = tested on: Mus musculus; test: Antiinflammatory activity against A/J mouse assessed as decrease in LPS-induced TNFalpha production in lungs at 6.25 umol/kg, po treated via gavage for 1 hr before LPS stimulation and measured after 24 hrs by ELISA relative to control; assay type: functional; conditions: 25 h
[13] = tested on: Mus musculus; test: Antiinflammatory activity against A/J mouse assessed as decrease in LPS-induced airway hyperreactivity at 6.25 umol/kg, po treated via gavage for 1 hr before LPS stimulation measured after 24 hrs by whole body plethysmography relative to control; assay type: functional; conditions: 25 h
[14] = pampa, 8 h
[15] = organism: Homo sapiens; test: Inhibition of human recombinant PDE4A1A using FAM-cAMP as substrate measured after 1 hr by IMAP TR-FRET assay relative to control
[16] = tested on: Trachea; test: […] activity in OVA-sensitized guinea pig-derived trachea assessed as decrease in CCh-induced tracheal tonic contraction in absence of functional epithelium treated with compound after contraction stabilised; assay type: tissue-based; conditions: Cavia porcellus
[17] = tested on: Mus musculus; test: Antiinflammatory activity against A/J mouse assessed as decrease in LPS-induced TNFalpha production in lungs at 25 umol/kg, po treated via gavage for 1 hr before LPS stimulation and measured after 24 hrs by ELISA relative to control; assay type: functional; conditions: 25 h
[18] = in vitro; conditions: PAMPA
[19] = Inhibition of human recombinant PDE4A1A using FAM-cAMP as substrate measured after 1 hr by IMAP TR-FRET assay
[20] = tested on: Trachea; test: […] activity in non-sensitized guinea pig-derived trachea assessed as decrease in CCh-induced tracheal tonic contraction in absence of functional epithelium treated with compound after contraction stabilised; assay type: tissue-based; conditions: Cavia porcellus
[21] = in vitro; conditions: PAMPA; remark: listed apart in the source
Description: Permeability of the compound by PAMPA-TGI assay

[22] = in vitro; conditions: PAMPA; remark: listed apart in the source
Description: Permeability of the compound incubated for 165 mins by PAMPA-BBB assay

Chain of 3',5'-cyclic-AMP phosphodiesterase 4B (Q07343 whole entry): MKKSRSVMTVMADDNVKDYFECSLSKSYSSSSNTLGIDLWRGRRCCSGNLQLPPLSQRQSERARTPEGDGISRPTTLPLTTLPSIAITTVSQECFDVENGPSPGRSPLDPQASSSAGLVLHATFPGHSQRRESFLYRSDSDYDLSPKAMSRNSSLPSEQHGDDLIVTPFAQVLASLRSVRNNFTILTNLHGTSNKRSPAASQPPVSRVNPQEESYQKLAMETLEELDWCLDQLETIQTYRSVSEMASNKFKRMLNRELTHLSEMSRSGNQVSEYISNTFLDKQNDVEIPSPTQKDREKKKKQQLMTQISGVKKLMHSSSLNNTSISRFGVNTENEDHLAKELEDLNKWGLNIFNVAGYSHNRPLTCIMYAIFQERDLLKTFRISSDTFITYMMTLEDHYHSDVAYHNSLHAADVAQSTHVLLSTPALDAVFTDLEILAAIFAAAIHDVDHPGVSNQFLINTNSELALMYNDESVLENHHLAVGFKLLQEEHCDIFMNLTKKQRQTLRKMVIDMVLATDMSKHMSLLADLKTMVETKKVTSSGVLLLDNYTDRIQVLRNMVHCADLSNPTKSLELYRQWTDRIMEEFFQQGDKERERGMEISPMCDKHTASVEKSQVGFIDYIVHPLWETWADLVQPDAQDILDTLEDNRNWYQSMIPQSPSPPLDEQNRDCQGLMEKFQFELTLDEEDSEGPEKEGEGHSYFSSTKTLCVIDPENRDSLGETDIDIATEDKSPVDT
Chain of 3',5'-cyclic-AMP phosphodiesterase 4C (Q08493 whole entry): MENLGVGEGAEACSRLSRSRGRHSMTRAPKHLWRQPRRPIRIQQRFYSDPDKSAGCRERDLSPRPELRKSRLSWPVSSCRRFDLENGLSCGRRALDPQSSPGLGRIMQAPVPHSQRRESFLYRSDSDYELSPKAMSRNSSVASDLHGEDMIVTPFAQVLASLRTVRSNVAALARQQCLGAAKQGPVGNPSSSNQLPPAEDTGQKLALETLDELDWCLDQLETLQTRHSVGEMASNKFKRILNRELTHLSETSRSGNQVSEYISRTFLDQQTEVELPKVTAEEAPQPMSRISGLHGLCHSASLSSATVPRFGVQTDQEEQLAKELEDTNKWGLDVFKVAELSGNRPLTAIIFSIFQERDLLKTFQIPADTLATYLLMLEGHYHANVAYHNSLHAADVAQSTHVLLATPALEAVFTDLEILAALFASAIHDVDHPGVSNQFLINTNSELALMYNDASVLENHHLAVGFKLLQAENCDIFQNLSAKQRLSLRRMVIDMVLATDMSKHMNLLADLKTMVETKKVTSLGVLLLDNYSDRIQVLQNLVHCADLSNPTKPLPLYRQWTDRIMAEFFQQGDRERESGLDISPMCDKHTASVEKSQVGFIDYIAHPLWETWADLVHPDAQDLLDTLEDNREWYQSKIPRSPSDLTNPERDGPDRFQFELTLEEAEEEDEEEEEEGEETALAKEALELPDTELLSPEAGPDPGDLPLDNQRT
T1 sequence (Q08499 whole entry): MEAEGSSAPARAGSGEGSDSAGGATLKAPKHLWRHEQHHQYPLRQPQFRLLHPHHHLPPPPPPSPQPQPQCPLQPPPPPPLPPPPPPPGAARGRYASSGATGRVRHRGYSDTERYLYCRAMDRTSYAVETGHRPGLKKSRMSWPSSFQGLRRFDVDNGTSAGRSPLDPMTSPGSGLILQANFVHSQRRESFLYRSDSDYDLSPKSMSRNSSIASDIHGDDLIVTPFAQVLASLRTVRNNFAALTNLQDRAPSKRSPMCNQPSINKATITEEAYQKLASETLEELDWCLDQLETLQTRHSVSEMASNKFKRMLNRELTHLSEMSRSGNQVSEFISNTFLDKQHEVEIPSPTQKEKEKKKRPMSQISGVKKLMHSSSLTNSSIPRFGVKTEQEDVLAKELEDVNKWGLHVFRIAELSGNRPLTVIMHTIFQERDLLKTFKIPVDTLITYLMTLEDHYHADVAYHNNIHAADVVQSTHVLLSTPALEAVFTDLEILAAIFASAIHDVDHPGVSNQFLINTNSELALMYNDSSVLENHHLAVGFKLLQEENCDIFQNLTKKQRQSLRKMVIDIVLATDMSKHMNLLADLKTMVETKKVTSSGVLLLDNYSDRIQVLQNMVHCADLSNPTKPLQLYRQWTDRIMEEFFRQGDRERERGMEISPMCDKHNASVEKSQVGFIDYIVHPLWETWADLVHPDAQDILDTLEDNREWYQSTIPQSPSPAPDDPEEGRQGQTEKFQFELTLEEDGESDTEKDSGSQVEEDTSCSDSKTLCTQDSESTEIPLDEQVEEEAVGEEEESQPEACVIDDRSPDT

Row | SMILES | Stabilty [1] | inhibition [2] | inhibition [3] | inhibition [4] | Stabilty [5] | inhibition [6] | other results
1 | COc1ccc(CCNS(=O)(=O)c2ccc([N+](=O)[O-])cc2)cc1OC | Stable | < 5% | 13.8% | < 5% | Stable | < 5% | 
2 | COc1ccc(CCN(C)S(=O)(=O)c2ccc([N+](=O)[O-])cc2)cc1OC | Stable | 19% | < 5% | < 5% | Stable | < 5% | 
3 | COc1ccc(/C=N/N(C)S(=O)(=O)c2cc3c(cc2C)OCO3)cc1OC | Stable | 25.5% | 22.7% | 90.4% | Unstable | 90.7% | Emax [7]: 93%; EC50 [8]: 6.46 µM; EC50 [9]: 8.32 µM; inhibition in vivo at 25 µmol/kg [10]: 97%; IC50 [11]: 0.7 µM; inhibition in vivo at 6.25 µmol/kg [12]: 48.7%; inhibition in vivo at 6.25 µmol/kg [13]: 99%; Drug absorption [14]: 99.3%; Emax [15]: 100%; EC50 [16]: 3.16 µM; inhibition in vivo at 25 µmol/kg [17]: 85.9%; Papp at 8 h [18]: 13.1 ×10⁻⁶ cm/s; IC50 [19]: 0.5 µM; EC50 [20]: 8.13 µM
4 | O=c1ccc2ccccc2o1 [COUMARIN] |  |  |  |  |  |  | Drug absorption [14]: 99.98%; Papp at 8 h [18]: 22.6 ×10⁻⁶ cm/s
5 | CC(=O)Oc1ccccc1C(=O)O [ASPIRIN] |  |  |  |  |  |  | Papp [21]: 3.8 ×10⁻⁶ cm/s; Drug absorption [14]: 47.36%; Papp at 8 h [18]: 1.69 ×10⁻⁶ cm/s
6 | COc1ccc(S(=O)(=O)N(C)CCc2ccc(OC)c(OC)c2)cc1 | Stable | 23.5% | 33% | 43% | Stable | 35.6% | 
7 | COc1ccc(CCNS(=O)(=O)c2ccccc2C)cc1OC | Stable | < 5% | < 5% | 6.1% | Stable | < 5% | 
8 | COc1ccc(CCN(C)S(=O)(=O)c2ccccc2C)cc1OC | Stable | < 5% | 26.5% | 25.9% | Stable | 27.6% | 
9 | COc1ccc(/C=N/NS(=O)(=O)c2ccccc2)cc1OC | Stable | 14.6% | < 5% | 11.9% | Unstable | < 5% | 
10 | O=C(O)c1cc(/N=N/c2ccc(S(=O)(=O)Nc3ccccn3)cc2)ccc1O [SULFASALAZINE] |  |  |  |  |  |  | Papp [21]: 0.3 ×10⁻⁶ cm/s; Papp at 8 h [18]: 0.45 ×10⁻⁶ cm/s
11 | COc1ccc(CCNS(=O)(=O)c2ccc(-c3ccccc3)cc2)cc1OC | Stable | < 5% | < 5% | 14.8% | Stable | 10.8% | 
12 | Nc1nc2c(ncn2COCCO)c(=O)[nH]1 [ACYCLOVIR] |  |  |  |  |  |  | Papp at 8 h [18]: 0.08 ×10⁻⁶ cm/s
13 | COc1ccc(CCNS(=O)(=O)c2ccc(OC)c(OC)c2)cc1OC | Stable | 26% | < 5% | 11.3% | Stable | 13.6% | 
14 | COc1ccc(CCN(C)S(=O)(=O)c2ccc3ccccc3c2)cc1OC | Stable | 30.1% | 12.2% | 89.9% | Stable | 50.1% | Emax [7]: 63%; inhibition in vivo at 25 µmol/kg [10]: 97%; IC50 [11]: 35.3 µM; inhibition in vivo at 6.25 µmol/kg [12]: 0%; inhibition in vivo at 6.25 µmol/kg [13]: 95%; Emax [15]: 97%; inhibition in vivo at 25 µmol/kg [17]: 58.9%; IC50 [19]: 3 µM
15 | COc1ccc(/C=N/NS(=O)(=O)c2ccccc2C)cc1OC | Stable | 19.5% | < 5% | 8% | Unstable | 15.9% | 
16 | O=C(Nc1c(Cl)cncc1Cl)c1ccc(OC(F)F)c(OCC2CC2)c1 [ROFLUMILAST] |  |  |  |  |  |  | Papp at 2.75 h [22]: 8.05 ×10⁻⁶ cm/s; Drug absorption [14]: 86.58%; Papp at 8 h [18]: 5.28 ×10⁻⁶ cm/s

Row | SMILES | Stabilty [1] | inhibition [2] | inhibition [3] | inhibition [4] | Stabilty [5] | inhibition [6] | other results
17 | COc1ccc(S(=O)(=O)N/N=C/c2ccc(OC)c(OC)c2)cc1 | Stable | 40.2% | < 5% | 35.2% | Unstable | 20.2% | 
18 | C[C@]12C=CC(=O)C=C1CC[C@@H]1[C@@H]2C(=O)C[C@@]2(C)[C@H]1CC[C@]2(O)C(=O)CO [PREDNISONE] |  |  |  |  |  |  | Papp at 8 h [18]: 3.09 ×10⁻⁶ cm/s
19 | CNC(=C[N+](=O)[O-])NCCSCc1ccc(CN(C)C)o1 [RANITIDINE] |  |  |  |  |  |  | Drug absorption [14]: 13.48%
20 | COc1ccc(/C=N/NS(=O)(=O)c2cc3c(cc2C)OCO3)cc1OC | Stable | < 5% | < 5% | < 5% | Unstable | 8.8% | 
21 | COc1ccc(C2CNC(=O)C2)cc1OC1CCCC1 (configuration not stated) [ROLIPRAM] |  |  |  |  |  |  | EC50 [8]: 0.0316 µM; EC50 [9]: 0.0263 µM; EC50 [16]: 0.0692 µM; EC50 [20]: 0.0646 µM
22 | COc1ccc(/C=N/N(C)S(=O)(=O)c2ccccc2C)cc1OC | Stable | 39.3% | < 5% | 16.2% | Unstable | 26.1% | 
23 | COc1ccc(/C=N/NS(=O)(=O)c2ccc(C(F)(F)F)cc2)cc1OC | Stable | 29% | < 5% | < 5% | Unstable | 19.7% | 
24 | COc1ccc(S(=O)(=O)NCCc2ccc(OC)c(OC)c2)cc1 | Stable | 20.7% | < 5% | 11% | Stable | 23.8% | 
25 | COc1ccc(CCN(C)S(=O)(=O)c2ccc(-c3ccccc3)cc2)cc1OC | Stable | 26.6% | 7.1% | 46.8% | Stable | 56.3% | Emax [7]: 60%; inhibition in vivo at 25 µmol/kg [10]: 80%; IC50 [11]: 20.8 µM; inhibition in vivo at 6.25 µmol/kg [12]: 22.2%; inhibition in vivo at 6.25 µmol/kg [13]: 95%; Emax [15]: 65%; inhibition in vivo at 25 µmol/kg [17]: 55.1%
26 | COc1ccc(S(=O)(=O)N(C)/N=C/c2ccc(OC)c(OC)c2)cc1 | Stable | 43% | < 5% | 31.5% | Unstable | 12.8% | 
27 | COc1ccc(CCNS(=O)(=O)c2cc3c(cc2C)OCO3)cc1OC | Stable | 21.3% | < 5% | 11.8% | Stable | < 5% | EC50 [8]: 24.5 µM; EC50 [9]: 29.5 µM; Papp at 2.75 h [22]: 3.46 ×10⁻⁶ cm/s; EC50 [16]: 25.1 µM; IC50 [19]: 0.7 µM; EC50 [20]: 43.7 µM
28 | COc1ccc(CCNS(=O)(=O)c2ccc3ccccc3c2)cc1OC | Stable | 12.1% | < 5% | 30.4% | Stable | 9.1% | 
29 | CC(=O)N1CCN(c2ccc(OCC3COC(Cn4ccnc4)(c4ccc(Cl)cc4Cl)O3)cc2)CC1 (configuration not stated) [KETOCONAZOLE] |  |  |  |  |  |  | Papp [21]: 3.3 ×10⁻⁶ cm/s; Drug absorption [14]: 84.68%; Papp at 8 h [18]: 4.93 ×10⁻⁶ cm/s
30 | O=C(O)Cc1ccccc1Nc1c(Cl)cccc1Cl [DICLOFENAC] |  |  |  |  |  |  | Drug absorption [14]: 99.28%
31 | COc1ccc(CCN(C)S(=O)(=O)c2ccc(OC)c(OC)c2)cc1OC | Stable | 16.4% | 12% | 36.1% | Stable | 31.1% | 
